Experimental findings from PubChem BioAssay (NCI) are described below.

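Tested at 5 concentrations; 48 h exposure; 96-well plates; endpoints linearly interpolated, else capped at highest concentration. The concentration for 50% growth inhibition is given as GI50. Definition used: TGI = concentration required for complete inhibition of growth.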

Some test systems named below: CAKI-1 renal; SK-MEL-5 melanoma; HS 578T breast; NCI-H226 lung; U251 CNS; IGROV1 ovarian; TK-10 renal; SR leukemia; ACHN renal; KM12 colon.
Assay in all cases: growth of human tumour cells (NCI), 48 h

In the case of `C=C1C(=O)O[C@H]2[C@H]1CC/C(Cn1cc(-c3ccccc3)nn1)=C\CC[C@@]1(C)O[C@@H]21`, the GI50 in the assay with CAKI-1 renal was 1.28 µM; with SK-MEL-5 melanoma it was 7.32 µM; in the assay with HS 578T breast it was 9.78 µM; in the assay with NCI-H226 lung it was 4.6 µM; in the assay on U251 CNS, 7.96 µM; in the assay with IGROV1 ovarian it was 6.95 µM. The GI50 was 1.21 µM with TK-10 renal, 1.06 µM with SR leukemia, 0.941 µM in the assay on ACHN renal and 8.48 µM with KM12 colon. Besides, the TGI amounted to 4.83 µM in the assay on CAKI-1 renal; 13.9 µM in the assay on SK-MEL-5 melanoma; 29.6 µM in the assay with HS 578T breast; 11.2 µM in the assay with NCI-H226 lung; 15.4 µM in the assay with U251 CNS; 14.9 µM in the assay on IGROV1 ovarian. Besides, the TGI was found to be 4.53 µM in the assay on TK-10 renal, 6.44 µM in the assay on SR leukemia, 2.46 µM with ACHN renal and 18.7 µM with KM12 colon.

As to `COc1ccc(-c2nc(-c3ccccc3)c(-c3ccccc3)n2C2CC2)cc1OC1CCCC1`, the GI50 with CAKI-1 renal was 50.2 µM; with SK-MEL-5 melanoma, 16.7 µM; in the assay on HS 578T breast it was 26.3 µM; in the assay with NCI-H226 lung it was 83.7 µM; with U251 CNS, 30.2 µM; in the assay with IGROV1 ovarian it was 77.8 µM. In addition, the GI50 in the assay with SR leukemia was 7.92 µM; in the assay on ACHN renal, 58 µM; in the assay with KM12 colon, 50.9 µM. Besides, the TGI in the assay with CAKI-1 renal was more than 165 µM; with SK-MEL-5 melanoma it was 125 µM; with HS 578T breast, more than 165 µM; with NCI-H226 lung, more than 165 µM; with U251 CNS it was more than 165 µM; in the assay on IGROV1 ovarian, more than 165 µM. The TGI in the assay with SR leukemia was 59.4 µM; with ACHN renal it was more than 165 µM; with KM12 colon, more than 165 µM.

As to `CN(C)CCCNC(=O)c1cc(NC(=O)c2cc(NC(=O)c3cc(NC(=O)CCc4c[nH]c5ccccc45)cn3C)cn2C)cn1C`, the GI50 in the assay on SK-MEL-5 melanoma was more than 100 µM; in the assay with HS 578T breast, 0.0701 µM; with NCI-H226 lung, more than 100 µM; with U251 CNS, more than 100 µM; with IGROV1 ovarian it was more than 100 µM; in the assay with TK-10 renal, more than 100 µM. Moreover, the GI50 in the assay on SR leukemia, with ACHN renal and with KM12 colon was more than 100 µM in each case. Moreover, the TGI in the assay on SK-MEL-5 melanoma, with HS 578T breast, in the assay with NCI-H226 lung, with U251 CNS, with IGROV1 ovarian and in the assay on TK-10 renal was more than 100 µM throughout. Further, the TGI in the assay with SR leukemia, in the assay on ACHN renal and with KM12 colon was more than 100 µM throughout.

On to `COC(=O)/C(=C\c1c(C)[nH]c2ccccc12)S(=O)(=O)c1ccccc1`, for which the GI50 in the assay with CAKI-1 renal is 3.33 µM; in the assay with HS 578T breast it was 2.85 µM; in the assay on NCI-H226 lung it was 4.34 µM; in the assay on U251 CNS it was 3.42 µM; in the assay on IGROV1 ovarian it was 1.53 µM; in the assay with TK-10 renal, 8.07 µM. The GI50 was 1.05 µM with SR leukemia, 5.52 µM in the assay with ACHN renal and 2.37 µM in the assay on KM12 colon. Also, the TGI stood at 16.7 µM in the assay with CAKI-1 renal; 13.6 µM in the assay with HS 578T breast; 19.5 µM with NCI-H226 lung; 12.6 µM in the assay on U251 CNS; 8.94 µM in the assay with IGROV1 ovarian; 96.6 µM with TK-10 renal. Also, the TGI in the assay with SR leukemia was more than 100 µM; in the assay on ACHN renal, 18.5 µM; in the assay with KM12 colon, 6.31 µM.

Turning to `O=C(Nc1ccc(Cl)cc1)c1cc2ccccc2cc1O`, the GI50 was 1.84 µM in the assay on SK-MEL-5 melanoma; 2.68 µM in the assay on HS 578T breast; 2.59 µM with NCI-H226 lung; 2.54 µM with U251 CNS; 2.19 µM with IGROV1 ovarian; 3.93 µM in the assay with TK-10 renal. Besides, the GI50 is 3.93 µM with SR leukemia, 3.34 µM in the assay with ACHN renal and 2.81 µM with KM12 colon. For the same compound, the TGI in the assay with SK-MEL-5 melanoma was 5.51 µM; in the assay on HS 578T breast, 11.9 µM; in the assay on NCI-H226 lung it was 82.2 µM; with U251 CNS, 29.5 µM; in the assay with IGROV1 ovarian, more than 100 µM; in the assay with TK-10 renal, more than 100 µM. For the same compound, the TGI with SR leukemia, in the assay with ACHN renal and with KM12 colon was more than 100 µM throughout.

Turning to `Cc1nc2cccc(NCc3ccc(C(=O)NO)cc3)c2c(=O)n1-c1ccccc1`, the GI50 is 1.67 µM in the assay on CAKI-1 renal; 1.64 µM in the assay with SK-MEL-5 melanoma; 3.04 µM in the assay on HS 578T breast; 2.01 µM with NCI-H226 lung; 1.56 µM with U251 CNS; 1.76 µM in the assay on TK-10 renal. The GI50 is 1.43 µM in the assay with SR leukemia, 1.62 µM in the assay with ACHN renal and 1.8 µM in the assay with KM12 colon. The TGI in the assay with CAKI-1 renal is 3.62 µM; in the assay with SK-MEL-5 melanoma it was 3.1 µM; with HS 578T breast, more than 100 µM; in the assay with NCI-H226 lung, 6.08 µM; in the assay with U251 CNS, 3.04 µM; with TK-10 renal it was 6.07 µM. Also, the TGI in the assay with SR leukemia was more than 100 µM; with ACHN renal it was 3.33 µM; in the assay on KM12 colon, 3.59 µM.
